Assay results reported in patent US8440718B2, “Modulation of inflammation related to columnar epithelia” (The Brigham and Women's Hospital, Inc., priority 1991, dated 2013).
Marks after values point to notes of the source that are not given here.

Experiments:
[1] = test system: human PMN migration across inverted T84 epithelial monolayers; test: PMN transepithelial migration assay, basolateral-to-apical direction (inverted monolayers), fMLP gradient, myeloperoxidase readout; format: cell-based; conditions: for inhibition of PMN migration, basolateral-to-apical (total MPO activity): 10 nM, 15 min pre-incubation 37°C, 1 μM fMLP, 120 min
Description: Cell culture Approximately 350 epithelial monolayers were used for these studies. T84 intestinal epithelial cells (passages 70-95) were grown and maintained as confluent monolayers on collagen coated permeable support. Monolayers were grown on 0.33 cm^2 ring-supported polycarbonate filters (Costar Corp., Cambridge, Mass.) and utilized 6-14 days after plating as described in Example 2. Transepithelial resistance to passive ion flow was measured as described in Parkos C. A., et al. (1991). J. Clin. Invest. 88: 1605-1612); and Parkos C. A., et al. (1992). J. Cell. Biol. 117: 757-764). Inverted monolayers used to study migration of PMN in the basolateral-to-apical direction were constructed as described in Parkos C. A., et al. (1991). J. Clin. Invest. 88:1605-1612).
Migration assay: The PMN transepithelial migration assay has been detailed in Nash S., et al. (1987). J. Clin. Invest. 80: 1104-1113; Nash S., et al. (1991). J. Clin. Invest 87: 1474-1477); Parkos C. A., et al. (1991). J. Clin. Invest. 88: 1605-1612); and Parkos C. A., et al. (1992). J. Cell. Biol. 117: 757-764. Briefly, human PMN were isolated from normal human volunteers and suspended in modified HBSS (without Ca^2+ and Mg^2+, with 10 mM Hepes, pH 7.4, Sigma) at a concentration of 5×10^7/ml. Prior to addition of PMN, T84 monolayers were extensively rinsed in HBSS to remove residual serum components. Migration assays were performed by the addition of PMN (40 μl) to HBSS ([…]) in the upper chambers after chemoattractant (1 μM fMLP in HBSS) was added to the opposing (lower) chambers. Unless otherwise indicated, PMN were not washed free of LXA4 prior to addition to monolayers, and therefore, a five-fold dilution of lipoxin was present during the migration assay. For apical-to-basolateral migration experiments, PMN (2×10^6) were added at time 0. Migration in the basolateral-to-apical direction, while qualitatively similar, is substantially more efficient than in the apical-to-basolateral direction. (Parkos C. A., et al. (1991). J. Clin. Invest. 88: 1605-1612). Therefore, 5-fold fewer PMN (4×10^5) were added when migration proceeded in the basolateral-to-apical direction in order that baseline migration signals be approximately equivalent in both directions. (Parkos C. A., et al. (1991). J. Clin. Invest. 88: 1605-1612). Migration was allowed to proceed for 120 minutes, unless otherwise noted. All PMN transepithelial migration experiments were performed in a 37° C. room to ensure that epithelial monolayers, solutions, plasticware, etc., were maintained at uniform 37° C. temperature.
Migration was quantitated by assaying for the PMN azurophilic granule marker myeloperoxidase (MPO) as described previously (Parkos C. A., et al. (1991). J. Clin. Invest 88: 1605-1612). Following each migration assay, non-adherent PMN were extensively washed from the surface of the monolayer and PMN cell equivalents (PMN CE), estimated from a standard curve, were assessed as the number of PMN's associated with the monolayer, the number which had completely traversed the monolayer (ie. across the monolayer into the reservoir bath), as well as the total number of transmigrating PMN (the sum of monolayer and reservoir-associated PMN).
Data Presentation: Individual experiments were performed using large numbers of uniform groups of monolayers and PMN from individual blood donors on individual days. PMN isolation was restricted to five different blood donors (repetitive donations) over the course of these studies. Myeloperoxidase assay data were compared by two-factor analysis of variance (ANOVA) or by comparison of means using Student's t-Test PMN migration results are represented as PMN CE derived from a daily standard PMN dilution curve. Monolayer-associated PMN are represented as the number of PMN CE per monolayer and reservoir-associated PMN (ie. PMN which had completely traversed the monolayer into the lower chamber) are represented as the number of PMN CE/ml (total volume of 1 ml). […]

[2] = test system: human PMN migration across T84 epithelial monolayers; test: Effect of inhibitors on baseline and LXA4-elicited PMN transepithelial migration, apical-to-basolateral; format: cell-based
[3] = test system: neutrophil transmigration across T84 monolayers; test: Neutrophil transmigration across T84 monolayers by resistance or myeloperoxidase assay, Example 2; format: cell-based, human; conditions: fMLP 10^−6 and 10^−7 M
Description: (§1) Preparation of monolayers: Normal or inverted monolayers can be constructed for a physiological microassay using the commercially available insert system (Costar inserts, 0.33 cm^2, 5 μm polycarbonate filters). The larger pore size is crucial for allowing neutrophils to penetrate the filter. Collagen 1 must coat the filters to allow attachment of T84 cells. Original descriptions of the collagen coat involved procedures in which the collagen was chemically crosslinked Dharmsathaphorn, K. et al; Meth. Enzymol. 192:354-389; 1990. Dharmsathaphom, K. et al; Am. J. Physiol. 246 (Gastrointest. Liver Physiol. 9):G204-G208; 1984.
(§2) Isolation of neutrophils: Neutrophils are isolated from whole blood using a gelatin-sedimentation technique. Briefly, whole blood, anticoagulated with citrate/dextrose, is centrifuged at 300×g for 20 minutes (20° C.). The plasma and buffy coat are carefully removed using a curved, siliconized glass pipette which is attached to a vacuum trap. Care must be taken not to aspirate the interface between the buffy coat and RBC since this is where PMN reside. […]
For measurements, bridges are positioned as described, and the spontaneous transepithelial electrical potential and the instantaneous potential generated by passing 25 μA of current are measured. […] Using these values and Ohm's Law, tissue resistance and transepithelial current are then calculated. […]

[4] = test system: neutrophil transmigration across T84 monolayers; test: Neutrophil migration across inverted T84 monolayers (basolateral to apical), myeloperoxidase assay, Example 2; format: cell-based, human; conditions: FMLP 10^−6 M, PMN 6 × 10^6/cm^2
Description: as §1
Inverted monolayers can also be grown using this technique. For this 0.8 mm thick lexan rings having the same dimension of the base of Costar inserts are machined, deburred, cleaned by boiling with a trace of detergent and subsequently exhaustively washed, and attached to the underside of the insert using General Electric RTV Silicone glue (this underside ring is necessary for a peripheral electrical seal). After drying overnight, the inserts are sterilized by submersion in 70% ethanol (4-hr overnight), inverted onto a sterile petri dish in a hood, and allowed to dry. Collagen and cells are added to the filter (underside now facing up) exactly as with unmodified inserts and cells are allowed to attach for 4 hours before righting the inserts into the 24 well holding plates. Subsequent treatment of the monolayers is identical to that described above.
as §2, with “trap.” for “trap. Care must be taken not to aspirate the interface between the buffy coat and RBC since this is where PMN reside.”
Myeloperoxidase assay of neutrophil transepithelial migration: PMN contents of monolayers and lower chambers can be quantitated by assaying the PMN-specific azurophil granule marker, myeloperoxidase (MPO). […]

With CCCCC[C@H](O)[C@H](O)/C=C/C=C/C=C\C=C\[C@@H](O)CCCC(=O)O (relative stereo) [LXB4, (5S, 14R, 15S)-trihydroxy-6,10,12-trans-8-cis-eicosatetraenoic acid] the “effect on PMN migration in basolateral-to-apical direction” value [1] was “no effect” and the “inhibition of PMN migration, basolateral-to-apical (total MPO activity)” value [1] was 7±4%.
With CCCCCC(O)C=CC=CC=CC=CC(O)C(O)CCCC(=O)O (stereo not drawn) [11-trans-LXA4] the “inhibition of PMN migration, basolateral-to-apical (total MPO activity)” value [1] was 16±6%.
In the case of CC1CNCCN1S(=O)(=O)c1cccc2cnccc12 (stereo not shown) [Compound H7], the “inhibition of PMN transepithelial migration compared to vehicle control” value ([2]; H7 100 μM final concentration) is reported as 91±4%.
In the case of CC(C)c1ccc2c(c1)c(SC(C)(C)C)c(CC(C)(C)C(=O)O)n2Cc1ccc(Cl)cc1 [MK886], the “effect on LXA4-elicited increase in PMN transepithelial migration” value ([2]; MK886 10 ng/ml) is reported as “did not effect” and the “effect on baseline fMLP driven PMN migration” value ([2]; MK886 10 ng/ml) is reported as “did not alter”.
For COc1ccc2c(c1)c(CC(=O)O)c(C)n2C(=O)c1ccc(Cl)cc1 [indomethacin], the “baseline PMN migration, % vehicle control” value ([2]; indomethacin 50 μM, 15 min, 37°C, fMLP gradient) was 109±13 % vehicle control.
For N-formyl-Met-Leu-Phe [fMLP], the “stimulation of neutrophil transmigration” value [3] was “effective in stimulating transmigration”, the “Neutrophil Cell Equivalents In Monolayers” value [4] was 5.47 × 10^4 and the “Neutrophil Cell Equivalents In Opposite Reservoir” value [4] was 85.30^# × 10^4. For the same molecule, the “Neutrophil Cell Equivalents Total” value [4] was 90.77^# × 10^4.
In the case of pertussis toxin, the “inhibition of control, LXA4-elicited migration” value ([2]; PMN pre-exposed to pertussis toxin 2 μg/ml, then LXA4) is reported as 87±4% and the “inhibition of baseline fMLP driven migration compared to vehicle control” value ([2]; pertussis toxin 2 μg/ml) is reported as 91±8%.
